These results are taken from patent US11026942B2, “Agent for preventing and/or treating Alzheimer's disease” (KYOTO UNIVERSITY, priority 2015, dated 2021).

What all share (format): cell-based, human
One experiment deals with Aβ42. As to the kind of experiment: Aβ42 in FAD1 iPS cell-derived nerve cells (primary/secondary screening, dose dependency). Particulars: secondary screening, FAD1 iPS cell-derived nerve cells, numerical value (Aβ change rate). The text has this:
(§1) To perform induction from iPS cells to the cerebral cortex nerve early and with high reproducibility, iPS cells introduced with human Neurogenin 2 gene (NGN2) linked to doxycycline-inducible promoter by using PiggyBac were used (FIG. 1a, FIG. 1b, FIG. 4a and FIG. 4b). IPS cells prepared from 4 patients with familial Alzheimer's disease (FAD), 2 patients with sporadic Alzheimer's disease (SAD) and 4 healthy individuals (HC) were used. The iPS cells were established by the method described in Okita K et al., Nature.
(§2) Structural formulas (those in the form of salt or halide are also described as free form) and the general names of the candidate compounds are shown in Table 1.
(§3) To further study reproducibility of the candidate drugs obtained by the primary screening, secondary screening was conducted. In addition to Aβ40, Aβ42, Aβ42/40 ratio, Aβ38, Aβ43, sAPPα, sAPPβ were also studied and each numerical value was obtained.

The next experiment deals with Aβ43. As to the kind of experiment: Aβ43 in FAD1 iPS cell-derived nerve cells (secondary screening). On the set-up: scale not given here. The procedure: as §3
A further experiment has as its system sAPPα. As to the kind of experiment: sAPPα in FAD1 iPS cell-derived nerve cells (secondary screening). The settings on record: secondary screening, FAD1 iPS cell-derived nerve cells. On the set-up: scale not given here. The procedure:
as §3

The next experiment relates to Aβ38. As to the kind of experiment: Aβ38 in FAD1 iPS cell-derived nerve cells (secondary screening). On the set-up: scale not given here. The procedure:
as §3

The next experiment has as its system sAPPβ. As to the kind of experiment: sAPPβ in FAD1 iPS cell-derived nerve cells (secondary screening). Particulars: secondary screening, FAD1 iPS cell-derived nerve cells. On the set-up: sAPPβ: scale not given here. The procedure: as §3
For the next experiment, the system named is Aβ42/40 ratio. Briefly: Aβ42/40 ratio in FAD1 iPS cell-derived nerve cells (primary/secondary screening, dose dependency). Particulars: secondary screening.
Source text: as §1, §2, §3

`C[C@H](CS)C(=O)N1CCC[C@H]1C(=O)O` [compound 57, CAPTOPRIL] yielded an Aβ42 in the experiment with Aβ42 of 0.87. Besides, in the experiment with Aβ43, the Aβ43 was 0.86. Moreover, the sAPPα with sAPPα is on record as 0.91. In addition, in the experiment on Aβ38, the Aβ38 is 1.09. The compound also showed a sAPPβ in the experiment on sAPPβ of 0.91. Besides, the “Ratio Aβ42/40” value in the experiment on Aβ42/40 ratio worked out at 0.94.

In the case of `CCCCOC(=O)c1ccc(N)cc1` [compound 58, BUTAMBEN], the Aβ42 with Aβ42 came to 0.95. Further, the Aβ43 with Aβ43 stood at 0.95. In the experiment with sAPPα, this compound gave a sAPPα of 0.79. For the same compound, the Aβ38 in the experiment with Aβ38 amounted to 1.08. In the experiment on sAPPβ, the sAPPβ is 0.76. In addition, the “Ratio Aβ42/40” value in the experiment on Aβ42/40 ratio is reported as 1.03.

For `CCOC(=O)OC(C)OC(=O)[C@@H]1N2C(=O)[C@@H](NC(=O)[C@H](N)c3ccccc3)[C@H]2SC1(C)C` (stereo partly drawn) [compound 59, BACAMPICILLIN], in the experiment on Aβ42, the Aβ42 is 1.09. In the experiment on Aβ43, this compound returned an Aβ43 of 1.44. Besides, the sAPPα in the experiment on sAPPα amounted to 1.11. Besides, the Aβ38 in the experiment on Aβ38 came to 1.32. This compound returned a sAPPβ in the experiment on sAPPβ of 1.23. The “Ratio Aβ42/40” value in the experiment with Aβ42/40 ratio was determined as 1.15.

As for `CC(C)n1c(/C=C/[C@H](O)C[C@@H](O)CC(=O)O)c(-c2ccc(F)cc2)c2ccccc21` [compound 60, FLUVASTATIN], in the experiment with Aβ42, the Aβ42 is 0.96. Also, the Aβ43 in the experiment on Aβ43 was determined as 1.04. In the experiment on sAPPα, this compound had a sAPPα of 0.99. For the same compound, the Aβ38 with Aβ38 was 1.16. The same compound yielded a sAPPβ with sAPPβ of 1.14. The “Ratio Aβ42/40” value in the experiment on Aβ42/40 ratio worked out at 0.84.

In the experiment with Aβ42, `CCCc1nc(C(C)(C)O)c(C(=O)OCc2oc(=O)oc2C)n1Cc1ccc(-c2ccccc2-c2nn[nH]n2)cc1` [compound 61, OLMESARTAN MEDOXOMIL] came in with an Aβ42 of 0.82. The same compound registered an Aβ43 with Aβ43 of 0.9. The sAPPα in the experiment with sAPPα is listed as 0.8. For the same compound, the Aβ38 with Aβ38 amounted to 0.85. In the experiment with sAPPβ, this compound had a sAPPβ of 0.86. Also, the “Ratio Aβ42/40” value in the experiment with Aβ42/40 ratio worked out at 0.86.

In the experiment with Aβ42, `Nc1nc(/C(=C/CC(=O)O)C(=O)N[C@@H]2C(=O)N3C(C(=O)O)=CCS[C@H]23)cs1` [compound 62, CEFTIBUTEN] had an Aβ42 of 0.79. The same compound had an Aβ43 in the experiment with Aβ43 of 0.83. This compound also registered a sAPPα in the experiment with sAPPα of 0.76. The same compound registered an Aβ38 in the experiment on Aβ38 of 1.01. Moreover, in the experiment with sAPPβ, the sAPPβ is reported as 0.55. Moreover, the “Ratio Aβ42/40” value in the experiment on Aβ42/40 ratio came out at 0.87.

As for `C=CC1=C(C(=O)O)N2C(=O)[C@@H](NC(=O)/C(=N\O)c3csc(N)n3)[C@H]2SC1` [compound 63], the Aβ42 in the experiment with Aβ42 is given as 0.79. For the same compound, the Aβ43 in the experiment with Aβ43 amounted to 0.9. This compound yielded a sAPPα in the experiment on sAPPα of 0.82. Besides, the Aβ38 with Aβ38 is 0.95. In the experiment on sAPPβ, this compound had a sAPPβ of 1.01. The “Ratio Aβ42/40” value with Aβ42/40 ratio was 0.87.

Take `CCC[C@H](N[C@@H](C)C(=O)N1[C@H](C(=O)O)C[C@@H]2CCCC[C@@H]21)C(=O)OCC` [compound 64, PERINDOPRIL ERBUMINE]: in the experiment on Aβ42, the Aβ42 was 0.81. In the experiment on Aβ43, the Aβ43 was determined as 0.91. In addition, the sAPPα in the experiment with sAPPα was 0.7. Besides, the Aβ38 with Aβ38 is reported as 1.01. Moreover, in the experiment on sAPPβ, the sAPPβ is on record as 0.53. Further, the “Ratio Aβ42/40” value with Aβ42/40 ratio was determined as 0.85.

In the experiment on Aβ42, `Cc1cc(CC(=O)O)n(C)c1C(=O)c1ccc(Cl)cc1` [compound 65, ZOMEPIRAC] displayed an Aβ42 of 0.79. In the experiment with Aβ43, the Aβ43 was 0.83. The same compound came in with a sAPPα in the experiment with sAPPα of 0.73. In addition, in the experiment with Aβ38, the Aβ38 stood at 0.92. The sAPPβ with sAPPβ is listed as 0.76. For the same compound, the “Ratio Aβ42/40” value in the experiment with Aβ42/40 ratio was 0.85.

In turn, `Cc1cccc(C(=O)O)c1O` [compound 67, HYDROXYTOLUIC ACID] had an Aβ42 in the experiment on Aβ42 of 0.79. Besides, in the experiment with Aβ43, the Aβ43 turned out to be 0.77. In the experiment on sAPPα, this compound returned a sAPPα of 0.83. Further, the Aβ38 with Aβ38 worked out at 0.92. The compound also yielded a sAPPβ with sAPPβ of 0.66. Further, the “Ratio Aβ42/40” value in the experiment with Aβ42/40 ratio turned out to be 0.86.

The compound `CC(=O)Nc1ccc(OC(C)=O)cc1` [compound 68, DIACETAMATE] gave an Aβ42 in the experiment on Aβ42 of 0.86. The compound further registered an Aβ43 in the experiment with Aβ43 of 0.97. In the experiment with sAPPα, this compound showed a sAPPα of 0.98. The Aβ38 in the experiment with Aβ38 was found to be 1.08. Also, in the experiment with sAPPβ, the sAPPβ is on record as 0.86. For the same compound, the “Ratio Aβ42/40” value in the experiment with Aβ42/40 ratio came out at 0.76.

`CCn1cc(C(=O)O)c(=O)c2cnc(N3CCCC3)nc21` [compound 69, PIROMIDIC ACID] yielded an Aβ42 in the experiment with Aβ42 of 0.78. This compound yielded an Aβ43 with Aβ43 of 0.79. Besides, the sAPPα in the experiment with sAPPα came to 0.86. This compound also returned an Aβ38 in the experiment with Aβ38 of 1.01. The sAPPβ in the experiment on sAPPβ was found to be 0.69. Further, the “Ratio Aβ42/40” value with Aβ42/40 ratio came to 0.86.

For `CCOc1ccc(NC(=O)CC(C)O)cc1` (stereo not drawn) [compound 70, BUCETIN], in the experiment on Aβ42, the Aβ42 is reported as 0.82. The Aβ43 in the experiment with Aβ43 turned out to be 0.85. In the experiment with sAPPα, this compound yielded a sAPPα of 0.75. Moreover, the Aβ38 with Aβ38 came out at 1.02. The sAPPβ in the experiment with sAPPβ is reported as 0.75. Moreover, the “Ratio Aβ42/40” value with Aβ42/40 ratio was found to be 0.88.

Consider `O=C(NC(Cc1cc(=O)[nH]c2ccccc12)C(=O)O)c1ccc(Cl)cc1` (stereo not drawn) [compound 71, REBAMIPIDE], for which the Aβ42 in the experiment with Aβ42 amounted to 0.79. The Aβ43 with Aβ43 is recorded as 0.78. Moreover, the sAPPα in the experiment on sAPPα is given as 0.8. The Aβ38 in the experiment with Aβ38 amounted to 0.97. The sAPPβ in the experiment with sAPPβ is listed as 0.66. Further, the “Ratio Aβ42/40” value in the experiment on Aβ42/40 ratio is listed as 0.85.

Regarding `CCN(CCO)CCCC(C)Nc1ccnc2cc(Cl)ccc12` (stereo not drawn) [compound 72, HYDROXYCHLOROQUINE], the Aβ42 in the experiment with Aβ42 was 0.9. The compound also yielded an Aβ43 in the experiment on Aβ43 of 0.87. Moreover, in the experiment on sAPPα, the sAPPα is on record as 0.85. Further, the Aβ38 with Aβ38 came to 1.08. For the same compound, the sAPPβ with sAPPβ was 0.72. Moreover, in the experiment on Aβ42/40 ratio, the “Ratio Aβ42/40” value came to 1.01.

With `CC(C)(C)NC[C@H](O)c1ccc(O)c(CO)c1` [compound 73, LEVALBUTEROL], in the experiment on Aβ42, the Aβ42 came to 0.84. In the experiment with Aβ43, the Aβ43 was found to be 0.91. This compound also gave a sAPPα in the experiment on sAPPα of 0.74. For the same compound, the Aβ38 in the experiment on Aβ38 is 0.99. Further, in the experiment on sAPPβ, the sAPPβ is given as 0.66. Further, the “Ratio Aβ42/40” value with Aβ42/40 ratio is listed as 0.92.

The compound `CC(N=C(NC#N)Nc1ccncc1)C(C)(C)C` (stereo not drawn) [compound 74] showed an Aβ42 with Aβ42 of 0.72. In addition, the Aβ43 in the experiment with Aβ43 amounted to 0.79. In the experiment with sAPPα, this compound displayed a sAPPα of 0.83. In the experiment with Aβ38, the Aβ38 is recorded as 0.92. The sAPPβ with sAPPβ was 0.96. Moreover, the “Ratio Aβ42/40” value in the experiment with Aβ42/40 ratio stood at 0.84.

Regarding `COc1ccc(CCN(C)CCCC(C#N)(c2ccc(OC)c(OC)c2)C(C)C)cc1OC` (stereo not drawn) [compound 75], the Aβ42 with Aβ42 is given as 0.74. Also, the Aβ43 with Aβ43 amounted to 0.75. The sAPPα in the experiment on sAPPα turned out to be 0.81. Moreover, in the experiment with Aβ38, the Aβ38 was 0.89. In the experiment with sAPPβ, this compound had a sAPPβ of 0.71. For the same compound, the “Ratio Aβ42/40” value in the experiment on Aβ42/40 ratio is on record as 0.91.

Consider `CCCCOc1cc(C(=O)NCCN(CC)CC)c2ccccc2n1` [compound 76, DIBUCAINE], for which the Aβ42 with Aβ42 is 0.9. Besides, the Aβ43 with Aβ43 is 0.98. In the experiment with sAPPα, this compound yielded a sAPPα of 0.77. Moreover, the Aβ38 in the experiment on Aβ38 came out at 0.97. This compound also registered a sAPPβ in the experiment with sAPPβ of 0.77. In the experiment with Aβ42/40 ratio, the “Ratio Aβ42/40” value is given as 0.94.

In the case of `COc1cc(NC(C)CCCN)c2ncccc2c1` (stereo not drawn) [compound 77, PRIMAQUINE], the Aβ42 in the experiment on Aβ42 is 0.87. In the experiment with Aβ43, the Aβ43 was 0.89. The compound further gave a sAPPα in the experiment on sAPPα of 0.79. The compound further gave an Aβ38 in the experiment with Aβ38 of 1.07. Also, in the experiment on sAPPβ, the sAPPβ turned out to be 0.85. The “Ratio Aβ42/40” value with Aβ42/40 ratio came to 0.95.
